In patent US20050074879A1, “Antisense oligonucleotide modulation of STAT3 expression” (priority 2000, published 2005):
Oligonucleotides are written 5' to 3', each unit as a sugar letter and its base; * is a phosphorothioate linkage, no mark a phosphodiester; rarer units and linkages stand in square brackets, end groups in braces. Plain capitals give the bases only. e = 2'-O-(2-methoxyethyl) (MOE); [5mC] = 5-methylcytosine; d = 2'-deoxy (DNA)

How the values were obtained:
Human STAT3 mRNA = assay: Inhibition of human STAT3 mRNA expression in U266 cells, Northern blot; format: cell-based; settings: for % mRNA EXPRESSION / % mRNA INHIBITION: U266 cells, 2.5 μM oligonucleotide, electroporation, 24 hours; for % mRNA EXPRESSION: percent of control
Protocol: U266 human myeloma cell lines (originally obtained from American Type Culture Collection) were maintained in RPMI 1640 medium supplemented with 10% fetal calf serum. Cells (15×10^6 cells in PBS) were transfected with oligonucleotides at 200V with a single 6-millisecond pulse using a BTX Electro Square Porator T820 (Genetronics, San Diego Calif.). The cells were incubated for 24 hours before RNA extraction.
Total cellular RNA was isolated using the Rneasy kit (Qiagen, Santa Clarita, Calif.). Northern blotting was perfomed on 15 μg of RNA using a cDNA probe prepared from MB-MDA 468 RNA by standard RT-PCR followed by a nested primer reaction. Signals were quantitated using a Molecular Dynamics Phosphorimager.
In order to examine the importance of STAT3 expression in multiple myeloma cells, a series of 20mer STAT3 antisense oligonucleotides were designed and synthesized, using phosphorothioate chemistry and incorporating 2′-O-methoxyethyl modifications to improve hybridization affinity and nuclease resistance.

Mouse STAT3 mRNA = assay: Inhibition of mouse STAT3 mRNA expression in BCL1 cells (electroporation; RNase protection/Northern blot); format: cell-based; design: % mRNA INHIBITION: dose or concentration left out as unconfirmed; settings: BCL1 cells electroporated with oligonucleotide, RNA collected 24 hours later; for % mRNA EXPRESSION: control 100%
Protocol: The B lymphoma cell line, BCL1 was obtained from ATCC (Rockville, Md.). BCL1 cells were cultured in RPMI 1640 medium.
BCL1 cells (5×10^6 cells in PBS) were transfected with oligonucleotides by electroporation, at 200V, […]. using a BTX Electro Cell Manipulator 600 (Genetronics, San Diego, Calif.). For an initial screen, BCL1 were electroporated with […] oligonucleotide and RNA collected 24 hours later. Controls without oligonucleotide were subjected to the same electroporation conditions.
Total cellular RNA was isolated using the RNEASY7 kit (Qiagen, Santa Clarita, Calif.). RNAse protection experiments were conducted using RIBOQUANT™ kits and template sets according to the manufacturer's instructions (Pharmingen, San Diego, Calif.). Northern blotting was performed as described in Chiang, M-Y. et al. (J. Biol. Chem., 1991, 266, 18162-18171), using a rat cDNA probe prepared by Xho I/Sal I restriction digest of psvsport-1 plasmid (ATCC, Rockville, Md.). mRNA levels were quantitated using a PhosphorImager (Molecular Dynamics, Sunnyvale, Calif.).

Substance	% mRNA EXPRESSION (Human STAT3 mRNA) [%]	% mRNA INHIBITION (Mouse STAT3 mRNA) [%]	% mRNA EXPRESSION (Mouse STAT3 mRNA) [%]	also measured
113184 (antisense e[5mC]*eG*e[5mC]*e[5mC]*eT*d[5mC]*dT*dT*d[5mC]*d[5mC]*dA*dG*dT*d[5mC]*dA*eG*e[5mC]*e[5mC]*eA*eG) [compound 113184]	104.3	–	–	–
113210 (antisense eT*eA*eA*eA*eA*dG*dT*dG*d[5mC]*d[5mC]*d[5mC]*dA*dG*dA*dT*eT*eG*e[5mC]*eT*e[5mC]) [compound 113210]	72.2	–	–	Percent inhibition of STAT3 expression (Human STAT3 mRNA; Oligo concentration 2.5 μM): 36%; Percent inhibition of STAT3 expression (Human STAT3 mRNA; Oligo concentration 5 μM): 50%; Percent inhibition of STAT3 expression (Human STAT3 mRNA; Oligo concentration 10 μM): 76%; % mRNA INHIBITION (Human STAT3 mRNA): 27.8%
113173 (antisense e[5mC]*e[5mC]*eA*eT*eT*dG*dG*dG*dA*dA*dG*d[5mC]*dT*dG*dT*e[5mC]*eA*e[5mC]*eT*eG) [compound 113173]	119	–	–	–
113181 (antisense e[5mC]*e[5mC]*e[5mC]*eG*e[5mC]*d[5mC]*dA*dG*d[5mC]*dT*d[5mC]*dA*d[5mC]*dT*d[5mC]*eA*e[5mC]*eG*eA*eT) [compound 113181]	105.4	–	–	–
17148 (antisense ACTCAAACTGCCCTCCTGCT; listed as DNA, chemistry not fully specified) [compound 17148]	95.1	31	69	Percent inhibition of STAT3 expression (Human STAT3 mRNA; Oligo concentration 2.5 μM): 8%; Percent inhibition of STAT3 expression (Human STAT3 mRNA; Oligo concentration 5 μM): 54%; Percent inhibition of STAT3 expression (Human STAT3 mRNA; Oligo concentration 10 μM): 60%; % mRNA INHIBITION (Human STAT3 mRNA): 4.9%
113209 (antisense eA*eA*eA*eA*eG*dT*dG*d[5mC]*d[5mC]*d[5mC]*dA*dG*dA*dT*dT*eG*e[5mC]*eT*e[5mC]*eA) [compound 113209]	71.4	–	–	Percent inhibition of STAT3 expression (Human STAT3 mRNA; Oligo concentration 2.5 μM): 43%; Percent inhibition of STAT3 expression (Human STAT3 mRNA; Oligo concentration 5 μM): 54%; Percent inhibition of STAT3 expression (Human STAT3 mRNA; Oligo concentration 10 μM): 73%; % mRNA INHIBITION (Human STAT3 mRNA): 28.6%
113207 (antisense eA*eT*e[5mC]*eA*e[5mC]*d[5mC]*d[5mC]*dA*d[5mC]*dA*dT*dT*d[5mC]*dA*d[5mC]*eT*e[5mC]*eA*eT*eT) [compound 113207]	123.6	–	–	–
113211 (antisense eA*eA*eG*e[5mC]*eA*dG*dA*dT*d[5mC]*dA*d[5mC]*d[5mC]*d[5mC]*dA*d[5mC]*eA*eT*eT*e[5mC]*eA) [compound 113211]	116.5	–	–	–
113172 (antisense eA*e[5mC]*e[5mC]*eG*eT*dG*dT*dG*dT*d[5mC]*dA*dA*dG*d[5mC]*dT*eG*e[5mC]*eT*eG*eT) [compound 113172]	96.1	–	–	% mRNA INHIBITION (Human STAT3 mRNA): 3.9%
113170 (eA*eG*e[5mC]*eT*eG*dA*dT*dT*d[5mC]*d[5mC]*dA*dT*dT*dG*dG*eG*e[5mC]*e[5mC]*eA*eT) [compound 113170]	89.6	–	–	% mRNA INHIBITION (Human STAT3 mRNA): 10.4%
17150 (antisense eT*eA*eA*eA*eA*dA*dA*dA*dA*dA*dA*dA*dT*dC*dT*eG*eG*eA*eA*e[5mC]) [compound 17150]	–	5	95	–
17146 (antisense eA*eT*e[5mC]*eA*eA*dT*dG*dA*dA*dT*dC*dT*dA*dA*dA*eG*eT*eG*e[5mC]*eG) [compound 17146]	–	9	91	–
113171 (e[5mC]*e[5mC]*eA*eG*eG*dA*dG*dA*dT*dT*dA*dT*dG*dA*dA*eA*e[5mC]*eA*e[5mC]*e[5mC]) [compound 113171]	110.2	–	–	–
17141 (antisense eG*e[5mC]*eT*e[5mC]*eT*dT*dC*dA*dT*dC*dA*dG*dT*dC*dA*eG*eT*eG*eT*e[5mC]) [compound 17141]	–	38	62	–
113189 (antisense eT*eT*eG*eT*eG*dT*dT*dT*dG*dT*dG*d[5mC]*d[5mC]*d[5mC]*dA*eG*eA*eA*eT*eG) [compound 113189]	163.9	–	–	–
113178 (antisense eT*eG*eA*eT*eT*d[5mC]*dT*dT*d[5mC]*d[5mC]*d[5mC]*dA*d[5mC]*dA*dG*eG*e[5mC]*eA*e[5mC]*e[5mC]) [compound 113178]	143.9	–	–	–
17139 (antisense e[5mC]*e[5mC]*eA*eA*eG*dA*dG*dA*dT*dT*dA*dT*dG*dA*dA*eA*e[5mC]*eA*e[5mC]*e[5mC]) [compound 17139]	–	59	41	–
17151 (antisense eA*eA*eG*eA*eT*dA*dG*dC*dA*dG*dA*dA*dG*dT*dA*eG*eG*eA*eA*eA) [compound 17151]	–	8	92	–
17143 (antisense eG*e[5mC]*e[5mC]*eA*eG*dA*dC*dC*dC*dA*dG*dA*dA*dG*dG*eA*eG*eA*eA*eG) [compound 17143]	–	58	42	–
17147 (antisense eT*e[5mC]*eA*eG*e[5mC]*dA*dC*dC*dT*dT*dC*dA*dC*dC*dG*eT*eT*eA*eT*eT) [compound 17147]	–	30	70	–
17142 (antisense eA*eT*e[5mC]*eT*eG*dA*dC*dA*dC*dC*dC*dT*dG*dA*dG*eT*eA*eG*eT*eT) [compound 17142]	–	30	70	–
17156 (antisense e[5mC]*eA*e[5mC]*e[5mC]*eA*dG*dG*dA*dG*dG*dC*dA*dC*dT*dT*eG*eT*e[5mC]*eT*eA) [compound 17156]	–	60	40	–
113187 (antisense e[5mC]*e[5mC]*eG*e[5mC]*eT*d[5mC]*d[5mC]*dA*d[5mC]*d[5mC]*dA*d[5mC]*dA*dA*dA*eG*eG*e[5mC]*eA*e[5mC]) [compound 113187]	55.9	–	–	Percent inhibition of STAT3 expression (Human STAT3 mRNA; Oligo concentration 2.5 μM): 44%; Percent inhibition of STAT3 expression (Human STAT3 mRNA; Oligo concentration 5 μM): 56%; Percent inhibition of STAT3 expression (Human STAT3 mRNA; Oligo concentration 10 μM): 75%; % mRNA INHIBITION (Human STAT3 mRNA): 44.1%
113175 (antisense eG*e[5mC]*eG*eG*e[5mC]*dT*dA*dT*dA*d[5mC]*dT*dG*d[5mC]*dT*dG*eG*eT*e[5mC]*eA*eA) [compound 113175]	75.8	–	–	% mRNA INHIBITION (Human STAT3 mRNA): 24.2%
